One assay concerns Influenza A virus. Kind of assay: Antiviral activity against influenza A virus (A/Puerto Rico/8/34(H1N1)) infected in MDCK cells assessed as inhibition of virus-induced cytopathic effect after 48 hrs by crystal violet staining assay. It is filed as functional, organism-based. The note with it: A/Puerto Rico/8/1934(H1N1).
In the next assay the test system is K562. Kind of assay: Cytotoxicity against human K562 cells. It is filed as functional, cell-based.
The nature of assay [1]: Cytotoxicity against human HL60 cells. It is filed as functional, cell-based. The settings on record: HL-60.

For the compound `COc1c(C)c2c(c(OC)c1OC)C(=O)[C@@]1(OC2)OCc2c(C)c(OC)c(OC)c(OC)c21`, the IC50 – broadly, the point on the concentration scale where inhibition reaches its midpoint – is 149 µM in the assay on Influenza A virus, more than 50 µM in the assay with K562 and more than 50 µM in assay [1].

On to `NC(=O)c1ncn([C@@H]2O[C@H](CO)[C@@H](O)[C@H]2O)n1` [RIBAVIRIN], for which the IC50 in the assay on Influenza A virus came out at 101 µM.

As for `COc1c(C)c2c(c(OC)c1OC)C(=O)C1(OC2)OCc2c(C)c(OC)c(OC)c(OC)c21` (racemic), the half-inhibitory concentration (IC50) (in the assay on K562; in assay [1]) was more than 50 µM each time.

With `COc1c(C)c2c(c(OC)c1OC)C(=O)[C@]1(OC2)OCc2c(C)c(OC)c(OC)c(OC)c21`, the IC50 (in the assay on K562; in assay [1]) was more than 50 µM throughout.
